Measurements taken from patent publication US6737383B1, “Herbicidal oxadiazolidines” (priority 1999, dated 2004).

What was measured:
morningglory = assay: Test B pre/postemergence morningglory; type: in vivo, Ipomoea hederacea
In short: (§1)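 Test chemicals in a non-phytotoxic solvent mixture with surfactant were sprayed preemergence onto planted seeds and postemergence onto plants 2 to 18 cm tall (1- to 4-leaf stage). After twelve to sixteen days in a greenhouse, injury was visually rated against untreated controls from 0 (no effect) to 10 (complete control).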

cocklebur = assay: Test B pre/postemergence cocklebur; type: in vivo, Xanthium strumarium
In short: as §1

rape = assay: Test B pre/postemergence rape; type: in vivo, Brassica napus
In short: as §1

wild oat = assay: Test B pre/postemergence wild oat; type: in vivo, Avena fatua
In short: as §1

surinam grass = assay: Test B pre/postemergence surinam grass; type: in vivo, Brachiaria decumbens
In short: as §1

bedstraw = assay: Test B pre/postemergence bedstraw; type: in vivo, Galium aparine; settings: Preemergence
In short: as §1

wheat = assay: Test B pre/postemergence wheat; type: in vivo, Triticum aestivum
In short: as §1

soybean = assay: Test B pre/postemergence soybean; type: in vivo, Glycine max
In short: as §1

giant foxtail = assay: Test B pre/postemergence giant foxtail; type: in vivo, Setaria faberii
In short: as §1

pigweed = assay: Test B pre/postemergence pigweed; type: in vivo, Amaranthus retroflexus
In short: as §1

crabgrass = assay: Test B pre/postemergence crabgrass; type: in vivo, Digitaria sanguinalis
In short: as §1

corn = assay: Test B pre/postemergence corn; type: in vivo, Zea mays
In short: as §1

blackgrass = assay: Test B pre/postemergence blackgrass; type: in vivo, Alopecurus myosuroides
In short: as §1

purple nutsedge = assay: Test B pre/postemergence purple nutsedge; type: in vivo, Cyperus rotundus
In short: as §1

sugar beet = assay: Test B pre/postemergence sugar beet; type: in vivo, Beta vulgaris
In short: as §1

velvetleaf = assay: Test B pre/postemergence velvetleaf; type: in vivo, Abutilon theophrasti
In short: as §1

[1] = Postemergence, Rate 125 g/ha, scale of 0 to 10 where 0 is no effect and 10 is complete control
[2] = Postemergence, Rate 1000 g/ha, scale 0 to 10 (0 no effect, 10 complete control)
[3] = Preemergence, Rate 125 g/ha, scale of 0 to 10 where 0 is no effect and 10 is complete control
[4] = Preemergence, Rate 250 g/ha, scale 0 (no effect) to 10 (complete control)
[5] = Rate 250 g/ha, Postemergence, scale 0 to 10, 0 is no effect, 10 is complete control
[6] = Rate 500 g/ha, Postemergence, scale 0 to 10, 0 is no effect, 10 is complete control
[7] = Rate 500 g/ha, Preemergence, scale 0 to 10 (0 no effect, 10 complete control)
[8] = Rate 1000 g/ha, Preemergence, scale 0 to 10 (0 no effect, 10 complete control)

CCOP(=O)(Cn1c(=O)on(C(=O)N(c2ccc(F)cc2F)C(C)C)c1=O)OCC [Compound 736]
Morningglory plant response rating (morningglory; [1]): 6
Morningglory plant response rating (morningglory; [2]): 7
Plant response rating, Morningglory (morningglory; [3]): 0
Morningglory plant response rating (morningglory; [4]): 2
Morningglory plant response rating (morningglory; [5]): 6
Morningglory plant response rating (morningglory; [6]): 5
Morningglory plant response rating (morningglory; [7]): 6
Plant response rating, Morningglory (morningglory; [8]): 6
Cocklebur plant response rating (cocklebur; [1]): 0
Cocklebur plant response rating (cocklebur; [2]): 10
Plant response rating, Cocklebur (cocklebur; [3]): 0
Cocklebur plant response rating (cocklebur; [4]): 2
Cocklebur plant response rating (cocklebur; [5]): 0
Cocklebur plant response rating (cocklebur; [6]): 3
Cocklebur plant response rating (cocklebur; [7]): 2
Plant response rating, Cocklebur (cocklebur; [8]): 2
Rape plant response rating (rape; [1]): 0
Rape plant response rating (rape; [2]): 0
Plant response rating, Rape (rape; [3]): 0
Rape plant response rating (rape; [4]): 0
Rape plant response rating (rape; [5]): 0
Rape plant response rating (rape; [6]): 0
Rape plant response rating (rape; [7]): 2
Plant response rating, Rape (rape; [8]): 2
Wild oats plant response rating (wild oat; [1]): 2
Plant response rating, Wild oats (wild oat; [3]): 2
Wild oats plant response rating (wild oat; [4]): 9
Wild oats plant response rating (wild oat; [5]): 3
Wild oats plant response rating (wild oat; [6]): 3
Wild oats plant response rating (wild oat; [7]): 9
Plant response rating, Wild oats (wild oat; [8]): 10
B. signalgrass plant response rating (surinam grass; [1]): 0
B. signalgrass plant response rating (surinam grass; [2]): 7
Plant response rating, B. signalgrass (surinam grass; [3]): 3
B. signalgrass plant response rating (surinam grass; [4]): 3
B. signalgrass plant response rating (surinam grass; [5]): 0
B. signalgrass plant response rating (surinam grass; [6]): 0
B. signalgrass plant response rating (surinam grass; [7]): 8
Plant response rating, B. signalgrass (surinam grass; [8]): 9
Plant response rating, Bedstraw (bedstraw; Rate 125 g/ha, scale of 0 to 10 where 0 is no effect and 10 is complete control): 0
Bedstraw plant response rating (bedstraw; Rate 250 g/ha, scale 0 (no effect) to 10 (complete control)): 0
Bedstraw plant response rating (bedstraw; Rate 500 g/ha, scale 0 to 10 (0 no effect, 10 complete control)): 8
Wheat plant response rating (wheat; [1]): 2
Plant response rating, Wheat (wheat; [3]): 3
Wheat plant response rating (wheat; [4]): 3
Wheat plant response rating (wheat; [5]): 2
Wheat plant response rating (wheat; [6]): 2
Wheat plant response rating (wheat; [7]): 8
Plant response rating, Wheat (wheat; [8]): 9
Soybean plant response rating (soybean; [1]): 3
Plant response rating, Soybean (soybean; [3]): 0
Soybean plant response rating (soybean; [4]): 2
Soybean plant response rating (soybean; [5]): 4
Soybean plant response rating (soybean; [6]): 3
Soybean plant response rating (soybean; [7]): 2
Plant response rating, Soybean (soybean; [8]): 3
Giant foxtail plant response rating (giant foxtail; [1]): 2
Giant foxtail plant response rating (giant foxtail; [2]): 6
Plant response rating, Giant foxtail (giant foxtail; [3]): 8
Giant foxtail plant response rating (giant foxtail; [4]): 9
Giant foxtail plant response rating (giant foxtail; [5]): 2
Giant foxtail plant response rating (giant foxtail; [6]): 7
Giant foxtail plant response rating (giant foxtail; [7]): 9
Plant response rating, Giant foxtail (giant foxtail; [8]): 8
Redroot pigweed plant response rating (pigweed; [1]): 2
Redroot pigweed plant response rating (pigweed; [2]): 3
Plant response rating, Redroot pigweed (pigweed; [3]): 0
Redroot pigweed plant response rating (pigweed; [4]): 2
Redroot pigweed plant response rating (pigweed; [6]): 0
Redroot pigweed plant response rating (pigweed; [7]): 2
Plant response rating, Redroot pigweed (pigweed; [8]): 2
Crabgrass plant response rating (crabgrass; [1]): 3
Crabgrass plant response rating (crabgrass; [2]): 6
Plant response rating, Crabgrass (crabgrass; [3]): 3
Crabgrass plant response rating (crabgrass; [4]): 4
Crabgrass plant response rating (crabgrass; [5]): 3
Crabgrass plant response rating (crabgrass; [6]): 4
Crabgrass plant response rating (crabgrass; [7]): 9
Plant response rating, Crabgrass (crabgrass; [8]): 9
Corn plant response rating (corn; [1]): 4
Corn plant response rating (corn; [2]): 4
Plant response rating, Corn (corn; [3]): 2
Corn plant response rating (corn; [4]): 2
Corn plant response rating (corn; [5]): 3
Corn plant response rating (corn; [6]): 4
Corn plant response rating (corn; [7]): 2
Plant response rating, Corn (corn; [8]): 9
Blackgrass plant response rating (blackgrass; [1]): 0
Blackgrass plant response rating (blackgrass; [2]): 7
Plant response rating, Blackgrass (blackgrass; [3]): 2
Blackgrass plant response rating (blackgrass; [4]): 4
Blackgrass plant response rating (blackgrass; [5]): 2
Blackgrass plant response rating (blackgrass; [6]): 3
Blackgrass plant response rating (blackgrass; [7]): 9
Plant response rating, Blackgrass (blackgrass; [8]): 10
Nutsedge plant response rating (purple nutsedge; [1]): 0
Nutsedge plant response rating (purple nutsedge; [2]): 5
Plant response rating, Nutsedge (purple nutsedge; [3]): 0
Nutsedge plant response rating (purple nutsedge; [4]): 0
Nutsedge plant response rating (purple nutsedge; [5]): 0
Nutsedge plant response rating (purple nutsedge; [6]): 2
Nutsedge plant response rating (purple nutsedge; [7]): 10
Plant response rating, Nutsedge (purple nutsedge; [8]): 8
Sugarbeets plant response rating (sugar beet; [1]): 0
Plant response rating, Sugarbeets (sugar beet; [3]): 0
Sugarbeets plant response rating (sugar beet; [4]): 0
Sugarbeets plant response rating (sugar beet; [5]): 0
Sugarbeets plant response rating (sugar beet; [6]): 0
Sugarbeets plant response rating (sugar beet; [7]): 3
Plant response rating, Sugarbeets (sugar beet; [8]): 5
Velvetleaf plant response rating (velvetleaf; [1]): 2
Plant response rating, Velvetleaf (velvetleaf; [3]): 0
Velvetleaf plant response rating (velvetleaf; [4]): 0
Velvetleaf plant response rating (velvetleaf; [5]): 2
Velvetleaf plant response rating (velvetleaf; [6]): 3
Velvetleaf plant response rating (velvetleaf; [7]): 4
Plant response rating, Velvetleaf (velvetleaf; [8]): 3
